For one test, the target named is T1, flavodoxin of H. pylori (Helicobacter pylori, UniProt O25776).
T1 construct: made in house; host or cells: E. coli BL21
Put plainly: Binding to flavodoxin by isothermal titration calorimetry (ITC). The note with it: 50 mM EPPS buffer, pH 9, 7% DMSO, protein around 20 μM, read-out: affinity for flavodoxin. As for the experimental part:
The specific binding of the inhibitors of the present invention to flavodoxin of H. pylori was confirmed by isothermal titration calorimetry (ITC). This technique not only measures the affinity of each compound for the target protein, but also determines the contribution of the enthalpic and entropic components of binding.
The binding experiments were carried out in 50 mM EPPS buffer, pH 9 with 7% DMSO, with the inhibitor in the injection syringe at a concentration of 300-500 μM, and the protein around 20 μM in the measurement cell.

The target in another test is T2, H. pylori flavodoxin (Helicobacter pylori, UniProt O25776).
T2 construct: made in house; host or cells: E. coli BL21 (flavodoxin, pET28a); E. coli JVQ2 (PFOR, pBS(KS)); E. coli BL21(DE3) (FqrB, pET29b)
T2 sequence (O25776 1-164): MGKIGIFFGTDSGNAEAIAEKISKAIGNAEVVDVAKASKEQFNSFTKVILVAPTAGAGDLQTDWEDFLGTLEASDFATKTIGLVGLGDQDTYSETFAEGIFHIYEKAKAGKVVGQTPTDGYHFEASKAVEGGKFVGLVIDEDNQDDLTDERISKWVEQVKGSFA
Put plainly: Inhibition of the pyruvate/PFOR/flavodoxin/FqrB/NADP+ electron transfer reaction (NADPH formation at 340 nm). It counts as biochemical. To be noted: 50 μM compound; anaerobic; 10 μM Fld, 0.09 mg/ml PFOR, 0.15 μM FqrB; FIG. 1. An excerpt: Measurement of the absorbance (A) (AU is the unit of absorbance) at 340 nm against time (t) in seconds (s).
Flavodoxin is an essential protein for Helicobacter pylori survival as it participates in a fundamental reaction for obtaining energy from the oxidative decarboxylation of pyruvate. In this reaction, flavodoxin transfers electrons between the PFOR enzyme and the FqrB enzyme, which releases them to NADP^+.
The sequential reaction of electron transfer between pyruvate, PFOR, flavodoxin, FqrB and NADP^+ (activity assay) was followed spectroscopically by the appearance of the signal at 340 nm with the formation of NADPH. The reaction mixture contained 100 mM potassium phosphate pH 7, 10 mM pyruvate, 0.18 mM CoA, 1 mM MgCl, 0.3 mM NADP^+, 0.09 mg/ml PFOR, 10 μM Fld and 0.15 μM FqrB. The mixture, except CoA, was placed in a cuvette specially designed for anaerobic conditions. Oxygen was removed by means of 5 minute cycles with alternate flows of vacuum and argon. The reaction was started by the addition of 0.18 mM coenzyme A (CoA) that was held in a compartment inside the same cuvette. The reaction completed 15 minutes after adding the CoA reagent.
The inhibition assays were carried out in the same conditions as the activity assays previously described, adding an additional 50 μM of the disclosed compound of the general formula shown in (II) to the reaction cuvette.

For `COc1ccc(CSc2ccc([N+](=O)[O-])c3nonc23)cc1` [formula (II)], the Kd at flavodoxin of H. pylori turned out to be 3 µM. The “inhibition of NADPH formation (product formation curve, absorbance at 340 nm)” value against H. pylori flavodoxin was “almost total”.
